# Measurements: patent US12030908B2, “Antimicrobial compounds, compositions, and uses thereof” (Lakewood Amedex, Inc., priority 2017, dated 2024)
# Assays:
# P. aeruginosa = assay: Broth microdilution MIC at incremental pH, P. aeruginosa; type: cell-based
# Experimental: MIC testing is conducted using the broth (Mueller Hinton Broth) microdilution procedures relevant to each organism group as established by the Clinical and Laboratory Standards Institute (CLSI; 3-7). MIC plates are prepared in accordance with CLSI (3-7). To prepare the test plates, automated liquid handlers are used to conduct serial dilutions and liquid transfers. Automated liquid handlers utilized in this study include the Multidrop 384 (Labsystems, Helsinki, Finland) and the Biomek 2000 (Beckman Coulter, Fullerton CA). The solution is diluted to desired pH using 1 M Citric Acid or 1 M NaOH buffer. A standardized inoculum of each test organism is prepared per CLSI methods (3, 5-7) to equal a 0.5 McFarland standard in the appropriate media followed by an additional 1:20 dilution (1:10 for anaerobes).
# The plates are then inoculated with 10 μL of the diluted 0.5 McFarland suspension using the Biomek 2000 from low to high drug concentration, resulting in a final concentration of approximately 5×10^5 CFU/mL per well. An un-inoculated plate is incubated for the purpose of assessing solubility of the drug in the test media. The plates are stacked 3 to 4 high, covered with a sterile lid on the top plate, and incubated for 18 to 24 hours according to CLSI. The MIC is recorded as the lowest concentration of respective compound that inhibited visible growth of the organism.
# [1] = test system: wild type P. aeruginosa (PAO1; K2732); assay: Bacterial cytological profiling at pH 4, 5.5, 7 (Example 7), P. aeruginosa; type: cell-based; details: pH 7, 225 mg/mL
# Experimental: This bacterial cytological profiling (BCP) investigation uses methods and materials described previously by Nonejuie, P., Burkart, M., Poglianoa, K., Pogiano, J. (2013). Bacterial cytological profiling rapidly identifies the cellular pathways targeted by antibacterial molecules. Proc. Natl. Acad. Sci. U.S.A. 110(40):16169-16174. doi: 10.1073/pnas.1311066110.
# For viable cell counts, cells are grown to OD600≈0.4 and diluted 1:1 into buffered or unbuffered media containing various compound concentrations. Samples are then collected and serially diluted (1:10) on a 96 well plate. Five microliters from each well are spotted on LB plates, incubated at 30° C., and viable cells are counted the next day.
# Samples are collected at 10, 30, 120, and 240 min of exposure for viable cell count and imaging. For imaging, E. coli and S. aureus 200 μL of treated cells per time point are stained with 0.8 μg/mL FM4-64, 1.5 μg/mL DAPI, and 0.4 μM SYTOXGreen (Molecular Probes/Invitrogen). P. aeruginosa samples are stained 0.4 μM SYTOX Green, 28 μg/mL DAPI, and 1 μg/mL FM 4-64. Cells are transferred to an agarose pad (20% LB, 1% agarose) for imaging.
# For Nu-3 and Nu-8 stocks (at pH 4, 5.5 and 7), stock concentration is 500 mg/mL. For pH 4, the stocks are prepared by dissolving Nu-3 in 25 mM citrate buffer and Nu-8 in 350 mM citric acid. […]
# [2] = Body weight in the Acinetobacter baumannii lung infection model (Example 25); type: in vivo, BALB/c mice
# [3] = Nu-8 (10%), 3 doses, once daily for 3 days
# [4] = Nu-8 (10%), 5 doses, once daily for 5 days
smiles,measurement,setting,value
"CCCCOP(=O)(O)OC[C@H]1O[C@@H](n2ccc(N)nc2=O)C[C@@H]1OP(=O)(O)OCCCC [Nu-8, sodium ((2R,3S,5R)-5-(4-amino-2-oxopyrimidin-1(2H)-yl)-3-((butoxyoxidophosphor-yl)oxy)tetrahydrofuran-2-yl)methyl butyl phosphate]",MIC,P. aeruginosa; pH 1,9.38 mg/mL
same,MIC,P. aeruginosa; pH 3,18.75 mg/mL
same,MIC,P. aeruginosa; pH 4,37.5 mg/mL
same,MIC,P. aeruginosa; pH 5,75 mg/mL
same,MIC,P. aeruginosa; pH 7,>75 mg/mL
same,cell growth,[1],slightly lower than that at pH 7 alone
same,cell permeability,"[1]; 10 min, not persistent",~37%
same,Body Weight (g) Mean ± SD Day 0,[2]; [3],25.0 ± 0.6 g
same,Body Weight (g) Mean ± SD Day 1,[2]; [3],24.3 ± 0.5 g
same,Body Weight (g) Mean ± SD Day 3,[2]; [3],23.7 ± 0.5 g
same,Body Weight (g) Mean ± SD Day 0,[2]; [4],24.8 ± 0.8 g
same,Body Weight (g) Mean ± SD Day 1,[2]; [4],24.0 ± 0.6 g
same,Body Weight (g) Mean ± SD Day 2,"[2]; Nu-8 (10%), 5 doses, once daily for 5 days, Day 2",23.3 ± 0.5 g
same,Body Weight (g) Mean ± SD Day 3,[2]; [4],23.2 ± 0.8 g
same,Body Weight (g) Mean ± SD Day 4,"[2]; Nu-8 (10%), 5 doses, once daily for 5 days, Day 4",23.3 ± 1.0 g
same,Body Weight (g) Mean ± SD Day 5,"[2]; Nu-8 (10%), 5 doses, once daily for 5 days, Day 5",24.0 ± 0.6 g
same,Body Weight (g) Mean ± SD Day 0,"[2]; Nu-8 (10%), single dose",24.8 ± 0.8 g
same,Body Weight (g) Mean ± SD Day 1,"[2]; Nu-8 (10%), single dose",24.0 ± 0.9 g
same,change in mean body weights,[2]; vehicle and treatment groups,Decreases in mean body weights were observed
